Experimental data reported in patent US11206827B2, “Herbicidal composition comprising cinmethylin and specific quinolinecarboxylic acids” (BASF Agro B.V., priority 2015, dated 2021).

How the values were obtained:
Type in all cases: in vivo
Conditions in all cases: solo application, 20 DAT
Abutilon theophrasti = assay: Greenhouse pre-emergence herbicidal activity, ABUTH
Description: (§1) The test plants have been seeded, separately for each species, in plastic containers in sandy loamy soil containing 5% of organic matter.
(§2) The containers were irrigated gently to promote germination and growth and subsequently covered with transparent plastic hoods until the plants had rooted.
(§3) The plants have been cultivated due to their individual requirements at 10-25° C. and 20-35° C. The plants were irrigated due to their necessity.
(§4) The racemic mixture (±)-2-exo-(2-Methylbenzyloxy)-1-methyl-4-isopropyl-7-oxabicyclo[2.2.1]heptane was used as herbicide A and formulated as emulsifiable concentrates with an active ingredient concentration of 50 g/l, 100 g/l or 750 g/l respectively.
(§5) Quinmerac (herbicide B.2) was used as a wettable powder (WP) formulation having an active ingredient concentration of 50%.
(§6) In the following experiments, the herbicidal activity for the individual herbicidal compositions (solo and mixture applications) was assessed 20 days after treatment (DAT).
(§7) The evaluation for the damage on undesired weeds caused by the chemical compositions was carried out using a scale from 0 to 100%, compared to the untreated control plants. Here, 0 means no damage and 100 means complete destruction of the plants.
(§8) The plants used in the greenhouse experiments belonged to the following species:
(§9) where X=effect in percent using herbicide A at an application rate a; • Y=effect in percent using herbicide B at application rate b; • E=expected effect (in %) of herbicide A+ herbicide B at application rates a+b.
(§10) The value E corresponds to the effect (plant damage or injury) which is to be expected if the activity of the individual compounds is additive. If the observed effect is higher than the value E calculated according to the Colby equation, a synergistic effect is present.
(§11) Table 1 below relates to the herbicidal activity, in greenhouse trials, of the individual actives and the combinations applied at different rates and ratios, in pre-emergence application at 20 days after treatment (DAT).

Alopecurus myosuroides = assay: Greenhouse pre-emergence herbicidal activity, ALOMY
Description: as §1, §2, §3, §4, §5
(§12) In the following experiments, the herbicidal activity for the individual herbicidal compositions (solo and mixture applications) was assessed 20 days after treatment (DAT). […]
(§13) The value E corresponds to the effect (plant damage or injury) which is to be expected if the activity of the individual compounds is additive. If the observed effect is higher than the value E calculated according to the Colby equation, a synergistic effect is present. […]

Anthemis arvensis = assay: Greenhouse pre-emergence herbicidal activity, ANTAR
Description: as §1, §2, §3, §4, §5, §12, §13

Amaranthus retroflexus = assay: Greenhouse pre-emergence herbicidal activity, AMARE
Description: as §1, §2, §3, §4, §5, §12, §13

Avena fatua = assay: Greenhouse pre-emergence herbicidal activity, AVEFA
Description: as §1, §2, §3, §4, §5, §6, §7, §8, §9, §10, §11

Digitaria sanguinalis = assay: Greenhouse pre-emergence herbicidal activity, DIGSA
Description: as §1, §2, §3, §4, §5, §6, §7, §8, §9, §10, §11

Echinochloa crus-galli = assay: Greenhouse pre-emergence herbicidal activity, ECHCG
Description: as §1, §2, §3, §4, §5, §6, §7, §8, §9, §10, §11

Geranium dissectum = assay: Greenhouse pre-emergence herbicidal activity, GERDI
Description: as §1, §2, §3, §4, §5, §6, §7, §8, §9, §10, §11

Lolium multiflorum = assay: Greenhouse pre-emergence herbicidal activity, LOLMU
Description: as §1, §2, §3, §4, §5, §6, §7, §8, §9, §10, §11

Papaver rhoeas = assay: Greenhouse pre-emergence herbicidal activity, PAPRH
Description: as §1, §2, §3, §4, §5, §12, §13

Polygonum convolvulus = assay: Greenhouse pre-emergence herbicidal activity, POLCO
Description: as §1, §2, §3, §4, §5, §6, §7, §8, §9, §10, §11

Setaria viridis = assay: Greenhouse pre-emergence herbicidal activity, SETVI
Description: as §1, §2, §3, §4, §5, §6, §7, §8, §9, §10, §11

Sorghum halepense = assay: Greenhouse pre-emergence herbicidal activity, SORHA
Description: as §1, §2, §3, §4, §5, §6, §7, §8, §9, §10, §11

Stellaria media = assay: Greenhouse pre-emergence herbicidal activity, STEME
Description: as §1, §2, §3, §4, §5, §6, §7, §8, §9, §10, §11

Cc1cnc2c(C(=O)O)c(Cl)ccc2c1 [quinmerac, 7-chloro-3-methylquinoline-8-carboxylic acid]
herbicidal activity (Abutilon theophrasti; 50 g ai/ha): 0% | herbicidal activity (Abutilon theophrasti; 200 g ai/ha): 0% | herbicidal activity (Alopecurus myosuroides; 250 g ai/ha): 0% | herbicidal activity (Anthemis arvensis; 250 g ai/ha): 0% | herbicidal activity (Amaranthus retroflexus; 250 g ai/ha): 0% | herbicidal activity (Avena fatua; 25 g ai/ha): 0% | herbicidal activity (Avena fatua; 50 g ai/ha): 0% | herbicidal activity (Avena fatua; 125 g ai/ha): 0% | herbicidal activity (Avena fatua; 250 g ai/ha): 0% | herbicidal activity (Digitaria sanguinalis; 31.25 g ai/ha): 0% | herbicidal activity (Digitaria sanguinalis; 62.5 g ai/ha): 0% | herbicidal activity (Digitaria sanguinalis; 125 g ai/ha): 0% | herbicidal activity (Digitaria sanguinalis; 250 g ai/ha): 0% | herbicidal activity (Echinochloa crus-galli; 31.25 g ai/ha): 0% | herbicidal activity (Echinochloa crus-galli; 62.5 g ai/ha): 0% | herbicidal activity (Geranium dissectum; 31.25 g ai/ha): 0% | herbicidal activity (Geranium dissectum; 62.5 g ai/ha): 0% | herbicidal activity (Geranium dissectum; 200 g ai/ha): 0% | herbicidal activity (Geranium dissectum; 250 g ai/ha): 50% | herbicidal activity (Lolium multiflorum; 200 g ai/ha): 25% | herbicidal activity (Lolium multiflorum; 250 g ai/ha): 0% | herbicidal activity (Papaver rhoeas; 31.25 g ai/ha): 0% | herbicidal activity (Polygonum convolvulus; 100 g ai/ha): 0% | herbicidal activity (Polygonum convolvulus; 200 g ai/ha): 0% | herbicidal activity (Setaria viridis; 31.25 g ai/ha): 0% | herbicidal activity (Setaria viridis; 62.5 g ai/ha): 0% | herbicidal activity (Sorghum halepense; 62.5 g ai/ha): 0% | herbicidal activity (Sorghum halepense; 200 g ai/ha): 25% | herbicidal activity (Stellaria media; 50 g ai/ha): 0% | herbicidal activity (Stellaria media; 100 g ai/ha): 0%

(±)-2-exo-(2-Methylbenzyloxy)-1-methyl-4-isopropyl-7-oxabicyclo[2.2.1]heptane [herbicide A]
herbicidal activity (Abutilon theophrasti; 62.5 g ai/ha): 25% | herbicidal activity (Abutilon theophrasti; 250 g ai/ha): 65% | herbicidal activity (Alopecurus myosuroides; 100 g ai/ha): 95% | herbicidal activity (Anthemis arvensis; 100 g ai/ha): 0% | herbicidal activity (Amaranthus retroflexus; 100 g ai/ha): 30% | herbicidal activity (Avena fatua; 31.25 g ai/ha): 0% | herbicidal activity (Avena fatua; 50 g ai/ha): 0% | herbicidal activity (Avena fatua; 62.5 g ai/ha): 30% | herbicidal activity (Avena fatua; 100 g ai/ha): 10% | herbicidal activity (Digitaria sanguinalis; 12.5 g ai/ha): 0% | herbicidal activity (Digitaria sanguinalis; 25 g ai/ha): 0% | herbicidal activity (Digitaria sanguinalis; 50 g ai/ha): 70% | herbicidal activity (Digitaria sanguinalis; 100 g ai/ha): 90% | herbicidal activity (Echinochloa crus-galli; 12.5 g ai/ha): 95% | herbicidal activity (Echinochloa crus-galli; 25 g ai/ha): 98% | herbicidal activity (Geranium dissectum; 12.5 g ai/ha): 0% | herbicidal activity (Geranium dissectum; 25 g ai/ha): 0% | herbicidal activity (Geranium dissectum; 100 g ai/ha): 95% | herbicidal activity (Geranium dissectum; 250 g ai/ha): 85% | herbicidal activity (Lolium multiflorum; 100 g ai/ha): 70% | herbicidal activity (Lolium multiflorum; 250 g ai/ha): 98% | herbicidal activity (Papaver rhoeas; 12.5 g ai/ha): 70% | herbicidal activity (Polygonum convolvulus; 125 g ai/ha): 0% | herbicidal activity (Polygonum convolvulus; 250 g ai/ha): 0% | herbicidal activity (Setaria viridis; 12.5 g ai/ha): 90% | herbicidal activity (Setaria viridis; 25 g ai/ha): 95% | herbicidal activity (Sorghum halepense; 25 g ai/ha): 98% | herbicidal activity (Sorghum halepense; 250 g ai/ha): 95% | herbicidal activity (Stellaria media; 62.5 g ai/ha): 0% | herbicidal activity (Stellaria media; 125 g ai/ha): 40%
